From patent publication US20090030066A1, “SMALL MOLECULES FOR THE PROTECTION OF PANCREATIC CELLS” (priority 2007, published 2009)

Experiments:
[1] = tested on: human bone marrow-derived mesenchymal stem cells (MSC); test: Expansion (cell count) of human bone marrow-derived mesenchymal stem cells; format: cell-based; conditions: for Cell number per culture: Table 4 experiment; for Cell number/culture: Table 5 experiment
Excerpt: (§1) Bone marrow aspirates were taken from normal adult donors signed after informed consent according to a protocol approved by the appropriate Ethics Committee. For the preparation of bone marrow mesenchymal stem cells, essentially a widely used technique was used as described earlier by others [Pittenger, M. F., Mackay, A. M., Beck, S. C., Jaiswal, R. K., Douglas, R., Mosca, J. D., Moorman, M. A., Simonetti, D. W., Craig, S, and Marshak, D. R., Multilineage potential of adult human mesenchymal stem cells (1999) Science 284, 143-147]. Briefly, nucleated cells were isolated with a pre-prepared commercial density gradient (Lymphoprep, Nycomed, Pharma, Oslo, Norway) and resuspended in Dulbecco's modified Eagle's medium (DMEM) (GIBCO, Grand Island, N.Y.) supplemented with 10% fetal calf serum (FCS), 50 U/ml of penicillin, and 50 μg/ml of streptomycin (GIBCO). All nucleated cells were plated in 25-cm^2 flasks (BD Falcon, Bedford, Mass.) at 37° C. in humidified atmosphere containing 5% CO2. After 24 hours, nonadherent cells were removed and cryopreserved in liquid nitrogen until use. The remaining adherent cells were thoroughly washed with Hanks balanced salt solution (HBSS) (GIBCO). Fresh complete culture medium was added and replaced every 3 or 4 days (twice a week). When cells grew to about 80% confluence, they were suspended and harvested by incubating with a ready-made solution containing 0.25% trypsin and 1 mM EDTA (Sigma-Aldrich, St. Louis, Mo.) for 5 minutes at 37° C.; this cell suspension is designated as passage 1. These cells were further expanded with 1:3-1:5 splitting in 175-cm^2 flasks (BD Falcon).
The total numbers of nucleated and viable cells were determined with a hemocytometer, using Turck's solution and trypan blue stain, respectively. The morphology of MSC was examined every week under an inverted microscope (Olympos CK2, Tokyo, Japan) to verify that cells retained their structural characteristics. In the two experiments described below, MSCs were split into 24-well “F-bottom” plates at passage 5.
In both experiments, about 80% confluent cells were split into 24-well “F-bottom” plates. Then after 24 hours in 10% serum containing medium (at about 30-35% confluence), the medium was replaced for either serum-free medium or 2% or 10 fetal calf serum containing medium. […] In both experiments, the data are the mean ±S.D. of 5 incubations.

[2] = tested on: human mesenchymal stem cells; test: Survival/attachment of human mesenchymal stem cells, compound present during plating; format: cell-based; conditions: 5-10 μM, 10% or 2% serum, 24 h
Excerpt: as §1, with “After 24 hours, nonadherent cells were removed and cryopreserved in liquid nitrogen until use. The remaining adherent cells were thoroughly washed with Hanks balanced salt solution (HBSS) (GIBCO). Fresh complete culture medium was added and replaced every 3 or 4 days (twice a week).” left out, “These cells were further expanded with 1:3-1:5 splitting in 175-cm^2 flasks (BD Falcon).” left out
The total numbers of nucleated and viable cells were determined with a hemocytometer, using Turck's solution and trypan blue stain, respectively. […]

STZ-treated mice = test: STZ-treated mice, third experiment (fasted): blood glucose, body weight, survival; format: in vivo
Experimental: The effects of CCompound1 on blood glucose level and body weight as well as survival were also examined in a third experiment. Animals weighing between 24.6-25.3 g were selected for this experiment with each group consisting of 6 mice. One group of mice (group 1) received no treatment over the entire experiment, while in the other two groups (groups 2-3), animals were injected (i.p.) with 210 mg/kg of STZ on day 0. Animals in group 3 were also injected (i.p.) with 4.5 mg per kg of CCompound1 once daily for 10 days starting 24 h prior to STZ treatment. CCompound1 and STZ were dissolved as previously indicated.
In this experiment the animals were fasted for 13-14 hours (fasted overnight from 6 p.m. to 7-8 a.m. and returned to normal diet from 8 a.m. to 6 p.m) prior to taking the blood samples.

Cc1c(OCC(O)C[N+](C)(C)C)cc2c(=O)c3ccccc3sc2c1C.[Cl-] (stereo not shown) [CCcompound1, [3-(3,4-Dimethyl-9-oxo-9H-thioxanthen-2-yloxy)-2-hydroxypropyl]trimethyl-ammonium chloride]
effect on MSC proliferation ([1]; 10 μM, 10% serum): enhanced cell proliferation
effect on expansion of stem cells ([1]; 5-10 μM, absence and presence of 2% serum, between days 3 and 6): significantly increased the expansion of stem cells
effect on MSC cell numbers ([1]; 5-10 μM, absence or presence of 2% serum, first 3 days): slightly enhance cell numbers
Cell number per culture ([1]; 0% serum, day 2, 5 μM): 6.4 ± 2.0 ×10^−3
Cell number per culture ([1]; 0% serum, day 2, 10 μM): 5.9 ± 1.9 ×10^−3
Cell number per culture ([1]; 0% serum, day 2, 50 μM): 4.0 ± 1.6 ×10^−3
Cell number per culture ([1]; 0% serum, day 4, 5 μM): 8.1 ± 2.1 ×10^−3
Cell number per culture ([1]; 0% serum, day 4, 10 μM): 6.8 ± 2.4 ×10^−3
Cell number per culture ([1]; 0% serum, day 4, 50 μM): 3.4 ± 1.1 ×10^−3
Cell number per culture ([1]; 0% serum, day 6, 5 μM): 12.5 ± 1.6 ×10^−3
Cell number per culture ([1]; 0% serum, day 6, 10 μM): 10.2 ± 1.4 ×10^−3
Cell number per culture ([1]; 0% serum, day 6, 50 μM): 3.8 ± 1.2 ×10^−3
Cell number per culture ([1]; 2% serum, day 2, 5 μM): 7.1 ± 2.7 ×10^−3
Cell number per culture ([1]; 2% serum, day 2, 10 μM): 6.3 ± 1.6 ×10^−3
Cell number per culture ([1]; 2% serum, day 2, 50 μM): 3.9 ± 1.1 ×10^−3
Cell number per culture ([1]; 2% serum, day 4, 5 μM): 11.6 ± 2.4 ×10^−3
Cell number per culture ([1]; 2% serum, day 4, 10 μM): 9.2 ± 2.3 ×10^−3
Cell number per culture ([1]; 2% serum, day 4, 50 μM): 5.2 ± 1.6 ×10^−3
Cell number per culture ([1]; 2% serum, day 6, 5 μM): 20.8 ± 2.5 ×10^−3
Cell number per culture ([1]; 2% serum, day 6, 10 μM): 17.4 ± 2.0 ×10^−3
Cell number per culture ([1]; 2% serum, day 6, 50 μM): 7.0 ± 3.3 ×10^−3
Cell number/culture ([1]; 2.0 μM, 0% serum, Day 3): 4.7 ± 3.5 ×10^−3
Cell number/culture ([1]; 2.0 μM, 0% serum, Day 6): 6.2 ± 1.7 ×10^−3
Cell number/culture ([1]; 2.0 μM, 2% serum, Day 3): 4.9 ± 2.6 ×10^−3
Cell number/culture ([1]; 2.0 μM, 2% serum, Day 6): 16.4 ± 2.5 ×10^−3
Cell number/culture ([1]; 2.0 μM, 10% serum, Day 3): 5.9 ± 1.7 ×10^−3
Cell number/culture ([1]; 2.0 μM, 10% serum, Day 6): 33.3 ± 5.2 ×10^−3
Cell number/culture ([1]; 5.0 μM, 0% serum, Day 3): 5.9 ± 2.1 ×10^−3
Cell number/culture ([1]; 5.0 μM, 0% serum, Day 6): 10.3 ± 2.5 ×10^−3
Cell number/culture ([1]; 5.0 μM, 2% serum, Day 3): 7.2 ± 1.3 ×10^−3
Cell number/culture ([1]; 5.0 μM, 2% serum, Day 6): 18.3 ± 4.8 ×10^−3
Cell number/culture ([1]; 5.0 μM, 10% serum, Day 3): 6.2 ± 2.6 ×10^−3
Cell number/culture ([1]; 5.0 μM, 10% serum, Day 6): 36.4 ± 5.2 ×10^−3
Cell number/culture ([1]; 10.0 μM, 0% serum, Day 3): 6.3 ± 2.2 ×10^−3
Cell number/culture ([1]; 10.0 μM, 0% serum, Day 6): 13.3 ± 3.2 ×10^−3
Cell number/culture ([1]; 10.0 μM, 2% serum, Day 3): 5.6 ± 1.6 ×10^−3
Cell number/culture ([1]; 10.0 μM, 2% serum, Day 6): 19.0 ± 3.8 ×10^−3
Cell number/culture ([1]; 10.0 μM, 10% serum, Day 3): 5.1 ± 1.7 ×10^−3
Cell number/culture ([1]; 10.0 μM, 10% serum, Day 6): 39.1 ± 4.1 ×10^−3
Cell number/culture ([1]; 25.0 μM, 0% serum, Day 3): 4.4 ± 1.7 ×10^−3
Cell number/culture ([1]; 25.0 μM, 0% serum, Day 6): 6.4 ± 3.1 ×10^−3
Cell number/culture ([1]; 25.0 μM, 2% serum, Day 3): 4.7 ± 2.6 ×10^−3
Cell number/culture ([1]; 25.0 μM, 2% serum, Day 6): 12.9 ± 4.9 ×10^−3
Cell number/culture ([1]; 25.0 μM, 10% serum, Day 3): 5.2 ± 2.1 ×10^−3
Cell number/culture ([1]; 25.0 μM, 10% serum, Day 6): 33.5 ± 5.3 ×10^−3
Cell number/culture ([1]; 100.0 μM, 0% serum, Day 3): 1.1 ± 1.6 ×10^−3
Cell number/culture ([1]; 100.0 μM, 0% serum, Day 6): 1.3 ± 1.1 ×10^−3
Cell number/culture ([1]; 100.0 μM, 2% serum, Day 3): 1.5 ± 1.1 ×10^−3
Cell number/culture ([1]; 100.0 μM, 2% serum, Day 6): 5.8 ± 3.2 ×10^−3
Cell number/culture ([1]; 100.0 μM, 10% serum, Day 3): 4.4 ± 2.5 ×10^−3
Cell number/culture ([1]; 100.0 μM, 10% serum, Day 6): 14.8 ± 3.1 ×10^−3
decrease of the effects on cell survival and proliferation when added late ([1]; compound added 6 hours after medium change, data not shown): 50-70%
effect on number of attached cells [2]: enhanced the number of attached cells
Blood glucose (STZ-treated mice; STZ 210 mg/kg i.p. day 0 + compound 4.5 mg/kg i.p. daily for 10 days from day −1, fasted, day −1): 2.1 ± 0.3 mM
Blood glucose (STZ-treated mice; STZ + compound 4.5 mg/kg i.p. daily for 10 days (stopped day 9), fasted, day 14): 11.8 ± 1.0 mM
Blood glucose (STZ-treated mice; STZ + compound 4.5 mg/kg i.p. daily for 10 days (stopped day 9), fasted, day 21): 12.5 ± 0.8 mM
Body weight (STZ-treated mice; STZ + compound 4.5 mg/kg i.p. daily for 10 days, day 0): 25.1 ± 0.5 g
Body weight (STZ-treated mice; STZ + compound 4.5 mg/kg i.p. daily for 10 days, day 3): 24.3 ± 1.0 g
Body weight (STZ-treated mice; STZ + compound 4.5 mg/kg i.p. daily for 10 days, day 5): 24.2 ± 0.9 g
Body weight (STZ-treated mice; STZ + compound 4.5 mg/kg i.p. daily for 10 days, day 7): 24.1 ± 0.7 g
Body weight (STZ-treated mice; STZ + compound 4.5 mg/kg i.p. daily for 10 days, day 9): 24.3 ± 0.8 g
Body weight (STZ-treated mice; STZ + compound 4.5 mg/kg i.p. daily for 10 days, day 11): 24.3 ± 0.9 g
Body weight (STZ-treated mice; STZ + compound 4.5 mg/kg i.p. daily for 10 days, day 13): 24.5 ± 1.1 g
Body weight (STZ-treated mice; STZ + compound 4.5 mg/kg i.p. daily for 10 days, day 15): 23.9 ± 0.4 g
Body weight (STZ-treated mice; STZ + compound 4.5 mg/kg i.p. daily for 10 days, day 17): 24.5 ± 1.1 g
Body weight (STZ-treated mice; STZ + compound 4.5 mg/kg i.p. daily for 10 days, day 21): 24.4 ± 1.0 g
Blood glucose (STZ-treated mice; STZ + compound 4.5 mg/kg i.p. daily for 10 days, fasted, day 0): 2.1 ± 0.2 mM
Blood glucose (STZ-treated mice; STZ + compound 4.5 mg/kg i.p. daily for 10 days, fasted, day 1): 6.7 ± 0.7 mM
Blood glucose (STZ-treated mice; STZ + compound 4.5 mg/kg i.p. daily for 10 days, fasted, day 2): 7.1 ± 0.5 mM
Blood glucose (STZ-treated mice; STZ + compound 4.5 mg/kg i.p. daily for 10 days, fasted, day 3): 7.2 ± 0.5 mM
Blood glucose (STZ-treated mice; STZ + compound 4.5 mg/kg i.p. daily for 10 days, fasted, day 4): 7.6 ± 0.4 mM
Blood glucose (STZ-treated mice; STZ + compound 4.5 mg/kg i.p. daily for 10 days, fasted, day 5): 8.2 ± 0.4 mM
Blood glucose (STZ-treated mice; STZ + compound 4.5 mg/kg i.p. daily for 10 days, fasted, day 6): 8.6 ± 0.3 mM
Blood glucose (STZ-treated mice; STZ + compound 4.5 mg/kg i.p. daily for 10 days, fasted, day 7): 9.3 ± 0.5 mM
Blood glucose (STZ-treated mice; STZ + compound 4.5 mg/kg i.p. daily for 10 days, fasted, day 8): 10.4 ± 0.7 mM
Blood glucose (STZ-treated mice; STZ + compound 4.5 mg/kg i.p. daily for 10 days, fasted, day 9): 11.0 ± 1.1 mM
mice alive on day 53 (STZ-treated mice; STZ + compound, 6 mice per group): 6
body weight lost (STZ-treated mice; co-treated with compound and STZ, day 0 to day 21): 0.7 to 1.2 g
reduction of the effects of STZ on blood glucose level (STZ-treated mice; days 3 and 4): more than 50%
